Laboratory results as given in ChEMBL document CHEMBL2029208 (Bioorg Med Chem, 2012).
Values after ≈ are worked out from the molar mass of the structure shown. Active and inactive are the calls of the source. The calls are words filed in the database; no cut-off is given here.

Legend:
[1] = biological target: T1, Bifunctional epoxide hydrolase 2 (Homo sapiens, UniProt P34913);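 further: recombinant enzyme with CMNPC substrate, fluorescence readout of 6-methoxy-2-naphthaldehyde formed over a 10 min reaction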
T1 sequence (P34913 whole entry): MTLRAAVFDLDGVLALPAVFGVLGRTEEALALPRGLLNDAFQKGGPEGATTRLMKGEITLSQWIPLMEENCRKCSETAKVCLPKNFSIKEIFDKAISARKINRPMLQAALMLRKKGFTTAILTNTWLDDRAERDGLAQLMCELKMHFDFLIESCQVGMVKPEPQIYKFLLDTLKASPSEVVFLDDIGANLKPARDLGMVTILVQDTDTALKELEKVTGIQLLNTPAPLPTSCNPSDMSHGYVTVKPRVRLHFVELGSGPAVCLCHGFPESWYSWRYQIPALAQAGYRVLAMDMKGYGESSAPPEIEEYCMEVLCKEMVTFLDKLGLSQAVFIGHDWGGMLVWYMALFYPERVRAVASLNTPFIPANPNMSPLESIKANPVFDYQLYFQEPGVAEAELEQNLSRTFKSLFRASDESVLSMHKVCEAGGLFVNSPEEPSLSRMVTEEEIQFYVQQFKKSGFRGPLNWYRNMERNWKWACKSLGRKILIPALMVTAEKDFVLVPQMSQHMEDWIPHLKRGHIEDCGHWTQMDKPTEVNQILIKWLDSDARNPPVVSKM

[2] = tested on: Mycobacterium tuberculosis; experiment: microbe, parasite or virus in culture; format: functional; settings: H37Ra
[3] = tested on: Mycobacterium tuberculosis; experiment: Antimycobacterial activity against Mycobacterium tuberculosis H37Ra at 10 uM; format: functional, organism-based

| SMILES | IC50 [1] | MIC [2] | Activity [3] |
| --- | --- | --- | --- |
| CCCCCCCCCCCC(=O)NC12CC3CC(CC(C3)C1)C2 | 159 nM | 4.17 µg/mL (≈ 12.5 µM) |  |
| O=C(NCCCN1CCOCC1)NC12CC3CC(CC(C3)C1)C2 | 610 nM | > 64 µg/mL |  |
| O=C(CCCCCCOCc1ccccc1)NC12CC3CC(CC(C3)C1)C2 | 66.5 nM | 9.24 µg/mL (≈ 25 µM) |  |
| O=C(Nc1ccc(OCCN2CCOCC2)cc1Cl)NC12CC3CC(CC(C3)C1)C2 | 2.4 nM | > 87 µg/mL |  |
| O=C(Nc1ccc(CC(=O)c2ccccc2)cc1)NC12CC3CC(CC(C3)C1)C2 | 4.7 nM | 2.43 µg/mL (≈ 6.25 µM) |  |
| O=C(NCCCCCOCCN1CCOCC1)NC12CC3CC(CC(C3)C1)C2 | 2.3 nM | > 79 µg/mL |  |
| CSc1ccc(NC(=O)NC23CC4CC(CC(C4)C2)C3)cc1 | 1.6 nM | 1.5 µg/mL (≈ 4.74 µM) |  |
| COCC(=O)c1ccc(O[C@H]2CC[C@@H](NC(=O)NC34CC5CC(CC(C5)C3)C4)CC2)cc1 | 3.8 nM | 5.51 µg/mL (≈ 12.5 µM) |  |
| Cc1cccc(NC(=O)NC23CC4CC(CC(C4)C2)C3)c1 | 6.1 nM | 1.1 µg/mL (≈ 3.87 µM) |  |
| O=C(NC1CCCC(C(=O)N2CCOCC2)C1)NC12CC3CC(CC(C3)C1)C2 (stereo unspecified) | 8.2 nM | > 81 µg/mL |  |
| O=C(Nc1ccc(I)cc1)NC12CC3CC(CC(C3)C1)C2 | 0.5 nM | 0.6 µg/mL (≈ 1.51 µM) |  |
| O=C(Nc1cccc(C(F)(F)F)c1)NC1CCCCC1 | 8.7 nM | 1.79 µg/mL (≈ 6.25 µM) |  |
| O=C(Nc1ccc(OCCOCCOCC(F)(F)F)cc1)NC12CC3CC(CC(C3)C1)C2 | 3.3 nM | 11 µg/mL (≈ 24.1 µM) |  |
| O=C(NC1CCCC(C(=O)N2CCC(N3CCOCC3)CC2)C1)NC12CC3CC(CC(C3)C1)C2 (stereo unspecified) | 6.1 nM | > 95 µg/mL |  |
| O=C(Nc1ccc(C(F)(F)F)cc1)Nc1ccc(C(F)(F)F)cc1 | 15 nM | 2.18 µg/mL (≈ 6.26 µM) |  |
| O=C(Nc1cccc(Oc2ccccc2)c1)NC12CC3CC(CC(C3)C1)C2 | 0.9 nM | 2.27 µg/mL (≈ 6.26 µM) |  |
| CC(C)OCCOCCOCCCCCNC(=O)NC12CC3CC(CC(C3)C1)C2 | 4.1 nM | 21 µg/mL (≈ 51.1 µM) |  |
| CCOC(=O)C(F)(F)Oc1ccc(NC(=O)NC23CC4CC(CC(C4)C2)C3)cc1 | 0.8 nM | 1.28 µg/mL (≈ 3.13 µM) |  |
| O=C(NC1CCCC(C(=O)NN2CCOCC2)C1)NC12CC3CC(CC(C3)C1)C2 (stereo unspecified) | 25.8 nM | > 84 µg/mL |  |
| O=C(Nc1cccc(C(=O)Nc2ccc(N3CCOCC3)cc2)c1)NC12CC3CC(CC(C3)C1)C2 | 74.2 nM | > 95 µg/mL |  |
| O=C(Nc1ccc(Oc2ccccc2)cc1)NC12CC3CC(CC(C3)C1)C2 | 0.5 nM | 0.1 µg/mL (≈ 0.276 µM) |  |

| SMILES | IC50 [1] | MIC [2] | Activity [3] |
| --- | --- | --- | --- |
| CC(C)(C)c1ccc(NC(=O)NC2CCCCC2)cc1 | 3.9 nM | 1.72 µg/mL (≈ 6.27 µM) |  |
| CC(C)c1ccc(NC(=O)NCC2CCCCC2)cc1 | 1.1 nM | 1.72 µg/mL (≈ 6.27 µM) |  |
| O=C(NC12CC3CC(CC(C3)C1)C2)N[C@H]1CC[C@@H](Oc2ccc(C(F)(F)F)cn2)CC1 | 1.8 nM | 1.37 µg/mL (≈ 3.13 µM) |  |
| O=C(Nc1ccc(C(=O)c2ccccc2)cc1)NC12CC3CC(CC(C3)C1)C2 | 1.6 nM | 1.8 µg/mL (≈ 4.81 µM) |  |
| O=C(Nc1ccc(OCCN2CCOCC2)c(Cl)c1)NC12CC3CC(CC(C3)C1)C2 | 0.6 nM | 27 µg/mL (≈ 62.2 µM) |  |
| CC(=O)c1cccc(NC(=O)NC23CC4CC(CC(C4)C2)C3)c1 | 1.3 nM | 3.9 µg/mL (≈ 12.5 µM) |  |
| CCCC(C)OCCOCCOCCCCCNC(=O)NC12CC3CC(CC(C3)C1)C2 (stereo unspecified) | 6.2 nM | > 91 µg/mL |  |
| O=C(Nc1cccc([N+](=O)[O-])c1)N[C@H]1CC[C@H](OCc2c(F)cccc2F)CC1 | 90 nM | 10.1 µg/mL (≈ 25 µM) |  |
| COCCOCCCCCNC(=O)NC12CC3CC(CC(C3)C1)C2 | 12.1 nM | 68 µg/mL (≈ 201 µM) |  |
| CC(=O)c1ccc(NC(=O)NC23CC4CC(CC(C4)C2)C3)cc1 | 6.3 nM | 2 µg/mL (≈ 6.4 µM) |  |
| COc1cc(NC(=O)NC23CC4CC(CC(C4)C2)C3)cc(C(F)(F)F)c1 | 1.7 nM | 0.58 µg/mL (≈ 1.57 µM) |  |
| COC(=O)CCc1ccc(NC(=O)NC23CC4CC(CC(C4)C2)C3)cc1 | 2 nM | 2.2 µg/mL (≈ 6.17 µM) |  |
| O=C(Nc1cccc(OC(F)F)c1)NC12CC3CC(CC(C3)C1)C2 | 2.6 nM | 0.8 µg/mL (≈ 2.38 µM) |  |
| C=CCO[C@H]1CC[C@@H](NC(=O)NC23CC4CC(CC(C4)C2)C3)CC1 | 1.3 nM | > 66 µg/mL |  |
| O=C(NCCCc1ccccc1)NC12CC3CC(CC(C3)C1)C2 | 1 nM | 0.7 µg/mL (≈ 2.24 µM) |  |
| O=C(Nc1cccc(C(=O)O)c1)NC12CC3CC(CC(C3)C1)C2 |  | 7.8 µg/mL (≈ 24.8 µM) | Active |
| O=C(Nc1cccc(C(=O)NCCCN2CCOCC2)c1)NC12CC3CC(CC(C3)C1)C2 | 57.9 nM | > 33 µg/mL |  |
| CCCCCCc1ccc(NC(=O)NC2CCCCC2)cc1 | 1.8 nM | 1.89 µg/mL (≈ 6.25 µM) |  |
| O=C(NCCCCCOCCOCCOCc1ccccc1)NC12CC3CC(CC(C3)C1)C2 | 10.8 nM | 46 µg/mL (≈ 100 µM) |  |
| O=C(Nc1ccc(OC(F)(F)F)cc1)Nc1ccc(OC(F)(F)F)cc1 | 9.6 nM | 4.75 µg/mL (≈ 12.5 µM) |  |
| O=C(Nc1cccc(C(=O)c2ccccc2)c1)NC12CC3CC(CC(C3)C1)C2 | 2.7 nM | 4.68 µg/mL (≈ 12.5 µM) |  |

| SMILES | IC50 [1] | MIC [2] | Activity [3] |
| --- | --- | --- | --- |
| O=C(Nc1ccc(Cl)c(Cl)c1)Nc1ccc(Cl)c(Cl)c1 | 28.1 nM | 2.19 µg/mL (≈ 6.26 µM) |  |
| CCOC(=O)c1ccc(O[C@H]2CC[C@@H](NC(=O)NC34CC5CC(CC(C5)C3)C4)CC2)cc1 | 1.6 nM | 8.3 µg/mL (≈ 18.8 µM) |  |
| O=C(NN1CCOCC1)NC12CC3CC(CC(C3)C1)C2 | 12800 nM | > 56 µg/mL |  |
| CCOCCOCCOCCCCCCNC(=O)NC12CC3CC(CC(C3)C1)C2 | 1.2 nM | 82 µg/mL (≈ 200 µM) |  |
| CCOC(=O)COc1ccc(NC(=O)NC23CC4CC(CC(C4)C2)C3)cc1 | 0.8 nM | 4.7 µg/mL (≈ 12.6 µM) |  |
| O=C(Nc1ccc(OC(F)(F)F)cc1)NC1CCCCC1 | 0.8 nM | 0.94 µg/mL (≈ 3.11 µM) |  |
| O=C(NC12CC3CC(CC(C3)C1)C2)N[C@H]1CC[C@@H](OC2CCCCC2)CC1 | 1.6 nM | > 75 µg/mL |  |
| O=C(Nc1ccc(O)c(Cl)c1)NC12CC3CC(CC(C3)C1)C2 | 5.1 nM | 2 µg/mL (≈ 6.23 µM) |  |
| O=C(NC12CC3CC(CC(C3)C1)C2)N[C@H]1CC[C@H](Oc2ccc(C(F)(F)F)cn2)CC1 | 4.8 nM | > 88 µg/mL |  |
| O=C(Nc1cccc(C(=O)NCC2CN(Cc3ccccc3)CCO2)c1)NC12CC3CC(CC(C3)C1)C2 (stereo unspecified) | 13.6 nM | > 101 µg/mL |  |
| CCOCCOCC(OC(=O)CCCNC(=O)NC12CC3CC(CC(C3)C1)C2)c1ccccc1 (stereo unspecified) | 4.2 nM | 95 µg/mL (≈ 201 µM) |  |
| C=C(CCCNC(=O)NC12CC3CC(CC(C3)C1)C2)OCCOCCOCC | 67 nM | > 79 µg/mL |  |
| O=C(NCC1CCCCC1)Nc1cccc(Cl)c1 | 2.6 nM | 1.67 µg/mL (≈ 6.26 µM) |  |
| O=C(Nc1cccc(OC(F)(F)C(F)F)c1)NC12CC3CC(CC(C3)C1)C2 | 1.5 nM | 1.4 µg/mL (≈ 3.62 µM) |  |
| O=C(Nc1ccc(N2CCOCC2)cc1)NC12CC3CC(CC(C3)C1)C2 | 5.2 nM | 18 µg/mL (≈ 50.6 µM) |  |
| COC(=O)c1ccc(NC(=O)N[C@H]2CC[C@@H](Oc3cc(C(=O)OC)cc(C(=O)OC)c3)CC2)cc1 | 3.8 nM | 3.03 µg/mL (≈ 6.25 µM) |  |
| O=C(NC12CC3CC(CC(C3)C1)C2)N[C@H]1CC[C@H](Oc2ccc(C(=O)O)cc2)CC1 |  | 21 µg/mL (≈ 50.9 µM) | inactive |
| CCOCCOCCOc1ccc(C(OC(=O)CCCNC(=O)NC23CC4CC(CC(C4)C2)C3)c2ccccc2)cc1 (stereo unspecified) | 5.1 nM | > 116 µg/mL |  |
| O=C(Nc1cccc(OC(F)(F)F)c1)NC12CC3CC(CC(C3)C1)C2 | 3.1 nM | 0.2 µg/mL (≈ 0.564 µM) |  |
| COC(=O)Cc1ccc(NC(=O)NC23CC4CC(CC(C4)C2)C3)cc1 | 4.4 nM | 2.1 µg/mL (≈ 6.13 µM) |  |
| O=C(Nc1cccc(C(F)(F)F)c1)NC12CC3CC(CC(C3)C1)C2 | 2.4 nM | 0.8 µg/mL (≈ 2.36 µM) |  |
